Drawing on article PMC12184107 (Cell Cycle, 2024), this text covers LGR5 binding and EC50 for 2 substances.

In one assay the test system is LGR5. The settings on record: gastric cancer, phage display; cited from earlier work.
In assay [1] the target is T1, recombinant human LGR5 (leucine-rich repeat-containing G-protein-coupled receptor 5) (human) (UniProt O75473).
T1 sequence (O75473 whole entry, looked up): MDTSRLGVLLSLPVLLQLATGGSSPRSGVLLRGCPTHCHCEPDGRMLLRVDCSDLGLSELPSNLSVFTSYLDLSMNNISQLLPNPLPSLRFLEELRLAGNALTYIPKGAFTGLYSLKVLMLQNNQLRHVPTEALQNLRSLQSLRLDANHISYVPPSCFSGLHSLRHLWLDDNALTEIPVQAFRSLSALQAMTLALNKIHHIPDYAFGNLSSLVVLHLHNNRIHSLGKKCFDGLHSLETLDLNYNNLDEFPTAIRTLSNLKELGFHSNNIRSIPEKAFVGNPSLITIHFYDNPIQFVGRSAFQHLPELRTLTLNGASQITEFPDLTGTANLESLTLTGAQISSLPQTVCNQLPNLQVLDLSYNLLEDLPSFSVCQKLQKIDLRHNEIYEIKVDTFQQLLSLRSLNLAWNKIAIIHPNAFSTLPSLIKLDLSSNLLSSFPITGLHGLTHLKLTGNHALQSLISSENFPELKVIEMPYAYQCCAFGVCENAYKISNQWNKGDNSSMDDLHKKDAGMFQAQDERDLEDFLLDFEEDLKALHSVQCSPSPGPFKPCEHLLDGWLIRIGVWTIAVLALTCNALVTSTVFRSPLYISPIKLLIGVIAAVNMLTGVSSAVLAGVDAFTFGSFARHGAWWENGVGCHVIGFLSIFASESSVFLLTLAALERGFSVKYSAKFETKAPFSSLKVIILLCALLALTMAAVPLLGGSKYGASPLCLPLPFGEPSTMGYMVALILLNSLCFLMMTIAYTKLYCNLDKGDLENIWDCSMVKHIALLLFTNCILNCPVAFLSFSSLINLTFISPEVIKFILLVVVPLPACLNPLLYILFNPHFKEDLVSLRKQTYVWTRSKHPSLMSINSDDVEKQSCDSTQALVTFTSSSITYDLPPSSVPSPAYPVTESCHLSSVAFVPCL
Briefly: ELISA.

Turning to IPQILSI, in the assay with LGR5, the LGR5 binding entry was “possessed LGR5 binding capabilities”.
In general, EC50 refers to the concentration that produces a half-maximal response. With “recombinant human R-spondin 1 (from UniProt Q2MKA7 21-263) (ligand)”, in assay [1], the EC50 was 0.04 nM.
